The values below come from ChEMBL document CHEMBL1201862, “PubChem BioAssay data set” (2004).

The target of assay [1] is T1, Replicative DNA helicase DnaB (Mycobacterium tuberculosis, UniProt P9WMR3).
T1 sequence (P9WMR3 whole entry): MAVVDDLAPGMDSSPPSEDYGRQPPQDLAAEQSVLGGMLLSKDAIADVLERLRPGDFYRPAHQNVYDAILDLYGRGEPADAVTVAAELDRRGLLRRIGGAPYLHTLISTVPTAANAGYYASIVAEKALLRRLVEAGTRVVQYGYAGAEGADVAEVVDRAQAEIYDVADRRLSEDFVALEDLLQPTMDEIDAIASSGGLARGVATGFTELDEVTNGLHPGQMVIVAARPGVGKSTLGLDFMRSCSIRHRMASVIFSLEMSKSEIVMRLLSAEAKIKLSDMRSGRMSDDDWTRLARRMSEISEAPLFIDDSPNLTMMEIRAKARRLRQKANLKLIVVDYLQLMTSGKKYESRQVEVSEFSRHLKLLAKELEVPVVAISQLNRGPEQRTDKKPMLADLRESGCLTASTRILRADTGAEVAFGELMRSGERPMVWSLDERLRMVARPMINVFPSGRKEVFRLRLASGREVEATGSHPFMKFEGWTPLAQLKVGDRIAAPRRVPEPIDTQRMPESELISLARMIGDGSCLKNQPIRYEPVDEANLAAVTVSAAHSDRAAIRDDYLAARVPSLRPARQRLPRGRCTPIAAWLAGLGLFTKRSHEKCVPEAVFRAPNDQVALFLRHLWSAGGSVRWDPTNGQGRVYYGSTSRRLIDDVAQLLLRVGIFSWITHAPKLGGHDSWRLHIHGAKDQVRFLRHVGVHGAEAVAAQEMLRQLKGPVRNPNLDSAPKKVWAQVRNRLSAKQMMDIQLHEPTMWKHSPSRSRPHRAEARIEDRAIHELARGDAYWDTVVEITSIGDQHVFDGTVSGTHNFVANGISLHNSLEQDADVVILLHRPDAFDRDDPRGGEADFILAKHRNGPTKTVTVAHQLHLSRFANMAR
Nature of the assay: DnaB intein splicing inhibitors, dose response, biochemical, cell-free fluorescence (AID 449749). It is filed as functional.

The next assay concerns the target T2, Protein RecA (Mycobacterium tuberculosis, UniProt P9WHJ3).
T2 sequence (P9WHJ3 whole entry): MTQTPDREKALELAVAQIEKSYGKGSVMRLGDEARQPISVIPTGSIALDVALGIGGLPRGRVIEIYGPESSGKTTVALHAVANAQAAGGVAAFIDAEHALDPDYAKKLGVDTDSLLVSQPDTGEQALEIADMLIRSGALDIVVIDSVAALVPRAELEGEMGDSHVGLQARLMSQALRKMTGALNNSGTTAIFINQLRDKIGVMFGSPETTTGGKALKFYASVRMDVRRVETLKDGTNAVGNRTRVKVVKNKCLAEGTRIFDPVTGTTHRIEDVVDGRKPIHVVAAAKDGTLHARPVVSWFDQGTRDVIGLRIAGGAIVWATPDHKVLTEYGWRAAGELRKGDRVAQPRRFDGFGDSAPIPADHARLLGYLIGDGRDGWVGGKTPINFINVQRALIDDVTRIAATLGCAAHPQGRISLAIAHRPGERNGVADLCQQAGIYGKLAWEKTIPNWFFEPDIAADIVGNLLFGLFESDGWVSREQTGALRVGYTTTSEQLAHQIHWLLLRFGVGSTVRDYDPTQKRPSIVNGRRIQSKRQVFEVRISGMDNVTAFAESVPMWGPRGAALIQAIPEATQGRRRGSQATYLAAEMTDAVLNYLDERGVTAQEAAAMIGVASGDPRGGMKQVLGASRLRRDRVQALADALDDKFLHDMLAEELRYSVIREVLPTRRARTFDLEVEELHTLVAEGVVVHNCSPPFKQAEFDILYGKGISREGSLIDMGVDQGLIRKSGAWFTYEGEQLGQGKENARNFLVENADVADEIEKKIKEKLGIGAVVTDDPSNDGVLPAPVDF
Kind of assay: Fluorescence Cell-Free Homogeneous Dose Retest to Identify Inhibitors of RecA-Intein Splicing Activity. [Related pubchem assays (depositor defined):AID2097, AID2223, AID489010, AID492950]. It is filed as functional.

Assay [2] deals with BJ. Nature of the assay: cytotoxicity toward BJ-TERT fibroblasts, dose response, cell-based, RAS-independent, luminescence (AID 1933). It is filed as functional. As to conditions: Homo sapiens.
Assay [3] deals with BJ. Nature of the assay: cells. It counts as functional, cell-based. The conditions noted are these: Homo sapiens.
In assay [4] the test system is BJ. Kind of assay: cytotoxicity toward BJ-TERT-LT-ST fibroblasts, dose response, cell-based, RAS-independent, luminescence (AID 1935).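 Note: BJ fibroblasts immortalized with TERT plus LT and ST oncogenes.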 It is filed as functional. As to conditions: Homo sapiens.
Assay [5] in a line: cytotoxicity toward DRD oncogenic fibroblasts, dose response, cell-based, non-viral oncogenic, luminescence (AID 1934). It counts as functional. The conditions noted are these: Homo sapiens.
Assay [6] addresses Luciferin 4-monooxygenase (Photinus pyralis, UniProt P08659). Nature of the assay: firefly luciferase enzyme inhibitors, dose response, biochemical, luminescence (AID 1891).
Assay [7] is described as follows: Luminescence Cell-Based Dose Confirmation HTS to Identify Inhibitors of Platelet Dense Granule Release. [Related pubchem assays: 1663 (Primary HTS), 1678 (Summary of Project)]. It counts as functional.
Assay [8] is described as follows: inhibitors of SNCA 5'UTR-driven reporter translation, confirmation, H4 neuroglioma cells, luminescence (AID 1988). It is filed as functional, cell-based.
The target of assay [9] is T3, Heat shock factor protein 1 (Mus musculus, UniProt P38532).
T3 sequence (P38532 whole entry): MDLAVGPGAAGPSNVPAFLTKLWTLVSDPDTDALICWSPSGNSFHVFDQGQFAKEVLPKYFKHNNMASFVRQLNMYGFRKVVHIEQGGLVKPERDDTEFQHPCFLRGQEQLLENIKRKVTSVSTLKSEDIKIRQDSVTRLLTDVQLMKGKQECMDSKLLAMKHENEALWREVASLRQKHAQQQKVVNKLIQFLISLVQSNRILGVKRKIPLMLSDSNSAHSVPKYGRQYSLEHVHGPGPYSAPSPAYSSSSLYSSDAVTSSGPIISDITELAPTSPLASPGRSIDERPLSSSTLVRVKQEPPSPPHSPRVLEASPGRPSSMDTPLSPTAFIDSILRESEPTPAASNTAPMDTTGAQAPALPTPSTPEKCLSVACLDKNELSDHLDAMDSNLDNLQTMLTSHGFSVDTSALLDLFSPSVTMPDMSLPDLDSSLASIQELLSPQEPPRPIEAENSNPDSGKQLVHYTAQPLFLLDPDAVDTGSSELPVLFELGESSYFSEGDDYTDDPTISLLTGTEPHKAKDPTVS
Kind of assay: HSF1 potentiators in luciferase reporter cells, confirmation, cell-based, NIH3T3, luminescence, dose retest (AID 435004).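 Note: stress induced by proteasome inhibitor MG132 added 30 min after compound; luciferase reporter driven by HSF1 response element in NIH3T3 cells; actives raise luminescence as potentiators of the MG132 stress response.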 It is filed as functional. On the technique in general: A reporter such as luciferase makes a cellular process visible.

Another assay relates to INS1. Kind of assay: beta cell apoptosis inhibitors, cytokine rescue, dose response, luminescence, retest (AID 449756).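 Note: cell death triggered by IL-1 beta plus TNF-alpha plus IFN-gamma mixture; protective hits raise ATP signal compared with cytokine alone wells.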 It is filed as functional, cell-based. The conditions noted are these: Rattus norvegicus.
Assay [10] deals with T4, Corticotropin-releasing factor receptor 2/Corticotropin-releasing factor-binding protein (Homo sapiens, UniProt P24387+Q13324).
T4 sequence (Q13324 whole entry): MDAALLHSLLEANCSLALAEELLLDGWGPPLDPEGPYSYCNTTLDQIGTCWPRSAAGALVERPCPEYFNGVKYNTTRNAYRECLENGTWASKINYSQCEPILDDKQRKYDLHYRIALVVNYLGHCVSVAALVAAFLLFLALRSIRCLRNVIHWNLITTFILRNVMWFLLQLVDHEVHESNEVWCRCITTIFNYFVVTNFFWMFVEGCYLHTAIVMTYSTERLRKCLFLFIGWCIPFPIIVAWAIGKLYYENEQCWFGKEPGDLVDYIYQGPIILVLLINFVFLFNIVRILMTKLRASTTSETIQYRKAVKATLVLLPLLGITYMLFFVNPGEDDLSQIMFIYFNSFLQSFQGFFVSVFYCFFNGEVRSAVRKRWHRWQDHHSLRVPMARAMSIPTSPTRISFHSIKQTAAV
T4 sequence (P24387 whole entry): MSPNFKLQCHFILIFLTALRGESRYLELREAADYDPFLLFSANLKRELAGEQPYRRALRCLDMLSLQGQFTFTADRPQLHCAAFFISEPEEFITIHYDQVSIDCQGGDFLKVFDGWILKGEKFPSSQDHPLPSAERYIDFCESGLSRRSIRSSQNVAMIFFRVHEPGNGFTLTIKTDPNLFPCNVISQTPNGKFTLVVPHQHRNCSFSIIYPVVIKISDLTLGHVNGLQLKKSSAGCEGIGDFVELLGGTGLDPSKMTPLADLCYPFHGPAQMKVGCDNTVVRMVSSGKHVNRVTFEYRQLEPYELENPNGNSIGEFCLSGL
Nature of the assay: activators of CRF receptor 2 with binding protein – uHTS hits, confirmation (AID 602473). It is filed as functional. The conditions noted are these: read-out: EC50_Mean.

The structures appear in SMILES notation. Calls of active or inactive are those of the source. Cut-off read from the data, not from the text of the source, for most assays here: actives have a measured EC50 and inactives only a lower limit. A value given as a limit tells only on which side of the number the result lay.

Sequence of Luciferin 4-monooxygenase (P08659 whole entry): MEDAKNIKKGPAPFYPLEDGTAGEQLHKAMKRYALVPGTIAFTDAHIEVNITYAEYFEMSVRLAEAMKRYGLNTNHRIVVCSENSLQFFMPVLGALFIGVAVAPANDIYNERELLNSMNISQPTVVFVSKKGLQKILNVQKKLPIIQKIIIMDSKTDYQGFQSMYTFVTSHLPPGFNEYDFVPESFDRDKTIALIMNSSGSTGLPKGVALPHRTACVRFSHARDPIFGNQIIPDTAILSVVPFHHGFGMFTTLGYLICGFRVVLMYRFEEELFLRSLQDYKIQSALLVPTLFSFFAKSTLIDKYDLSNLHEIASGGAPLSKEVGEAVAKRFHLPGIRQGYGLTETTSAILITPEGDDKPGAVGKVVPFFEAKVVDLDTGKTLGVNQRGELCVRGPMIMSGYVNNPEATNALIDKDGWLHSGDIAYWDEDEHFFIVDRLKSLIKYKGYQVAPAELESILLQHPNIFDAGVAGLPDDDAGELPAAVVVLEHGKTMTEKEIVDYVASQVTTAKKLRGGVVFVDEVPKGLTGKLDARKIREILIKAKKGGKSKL

Turning to `COc1ccc(OC)c(C(c2c(C)n[nH]c2O)c2c(C)n[nH]c2O)c1`, the half-maximal activity concentration (AC50) (commonly the concentration at which the activity in the assay is half-maximal) in [1] is 0.296 µM (active). Further, on Protein RecA, the EC50 is 0.211 µM (active).
`CC(C)(C)NC(=O)CN1CCN(C(=O)CCl)CC1`: the EC50 in the assay on BJ [2] was > 150 µM (not active); in the assay on BJ [3], > 150 µM (inconclusive); in the assay with BJ [4] it was > 150 µM (not active); in assay [5], > 150 µM (not active).
Regarding `Cc1nnc(NC(=O)CSc2cn(CCNC(=O)c3ccccc3)c3ccccc23)s1`, the EC50 in [6] is > 112 µM (not active); in assay [7], 80 µM (active).
For `O=C(C(Cc1ccccc1)n1cccc1)N1CCN(c2ncccn2)CC1` (stereo unspecified), in that order: > 112 µM (not active) and > 112 µM (not active).
The matching figures for `Cc1c(Cl)cccc1NC(=O)Nc1ccc(C(=O)N2CCCC2)cc1`: 1.94 µM (active) and 30.4 µM (active).
Regarding `CC(C)(C)NC(=O)C(c1cccs1)N(CC1CCCO1)C(=O)c1ccc(-c2ccccc2)[nH]1` (stereo unspecified), the half-maximal activity concentration (AC50) in assay [1] is 37.9 µM (active). The EC50 on Protein RecA was 169 µM (active).
The matching figures for `CN(C)c1ccc(NC(=O)c2ccncc2)c2ccccc12`: 66.5 µM (active) and 45.4 µM (active).
As to `Oc1nc(/C=C/c2ccccc2F)nc2ccccc12`, the EC50 with BJ [2] is 2.12 µM (active); in [8], 7.23 µM (inconclusive); in the assay on BJ [3] it was 45.2 µM (inconclusive); with BJ [4], 29.3 µM (inconclusive); in assay [5], 2.25 µM (active).
As for `COc1ccc(CN2C(=O)NC(=O)/C(=C\NNC(=O)c3ccccc3O)C2=O)cc1`, the AC50 in assay [1] is 2.69 µM (active). Also, on Protein RecA, the EC50 was 32.2 µM (active).
As for `Cc1cccc(-c2cnn(-c3ccccc3)c2N)c1`, the EC50 in assay [6] was 46 µM (active); in assay [7], 31.7 µM (active).
As for `Cc1nn(-c2cccc(Cl)c2)c2c1C(c1ccncc1)C(C#N)=C(N)O2` (stereo unspecified), the EC50 in assay [9] was > 260 µM (inactive); at Protein RecA, 7.71 µM (active). Further, the half-maximal activity concentration (AC50) in [1] was 9.1 µM (active).
In the case of `CSc1ccc(C(=O)C2CCCN(S(=O)(=O)c3c(C)noc3C)C2)cc1` (stereo unspecified), the EC50 in assay [6] and in [7] was > 112 µM (not active) in each case.
In the case of `O=C(CCN1C(=O)/C(=C\c2ccccc2F)SC1=S)N1CCCCC1`, the EC50 in the assay with BJ [2] was 15.8 µM (active); in the assay on BJ [3] it was 14.4 µM (active); in the assay with BJ [4], > 75 µM (not active); in [5] it was 15.5 µM (active).
As to `CC(=O)c1cccc(-n2nnnc2SCC(=O)N2CCCC2)c1`, the EC50 in assay [6] and in assay [7] was > 112 µM (not active) throughout.
In the case of `O=C(c1c[nH]c(C(=O)C(Cl)(Cl)Cl)c1)c1ccccc1F`, the AC50 in assay [1] was 12.6 µM (active). For the same compound, the EC50 on Protein RecA was 7.39 µM (active).
With `O=C(NC1C(=O)NNC1c1ccccc1)c1ccccc1` (stereo unspecified), the EC50 in assay [9] is 246 µM (active); on Protein RecA, 4.83 µM (active). Besides, the AC50 in [1] was 8.8 µM (active).
For `Cc1ccc(CSC(Nc2ccc(F)cc2)=C(C#N)C#N)cc1`, the EC50 in the assay with BJ [2] was 14.1 µM (active); in the assay with BJ [3] it was > 150 µM (not active); in the assay on BJ [4] it was > 75 µM (not active); in [5], 76.4 µM (active); in assay [10], > 53 µM (inactive). In addition, the AC50 in the assay on INS1 was 3.19 µM (active).
Regarding `COC(=O)CCSc1cc(NCCOC(C)=O)c([N+](=O)[O-])c2nonc12`, the half-maximal activity concentration (AC50) in assay [1] was 37.5 µM (active). Moreover, the EC50 on Protein RecA was 4.63 µM (active).
For `Cc1ccc(C/N=C/c2[nH]c3ccc(Br)c(Cl)c3c2O)cc1`, in that order: > 380 µM (inactive) and 1.43 µM (active).
